Experimental data: ChEMBL document CHEMBL1201862, “PubChem BioAssay data set” (2004)
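Dose response: 5 concentrations. Exposure: 48 h. Format: 96-well plates. Endpoint: linear interpolation; highest concentration if not reached. Abbreviation: GI50, concentration required for 50% inhibition of growth.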 The source made the active and inactive calls. Cut-off read from the data, not from the text of the source: active = GI50 up to about 1.1 µM and inactive = higher.

Experiments:
Assay in all cases: inhibition of tumour cell growth, NCI panel, 48 h
NCI-H226 = test system: NCI-H226
OVCAR-5 = test system: OVCAR-5
UACC-257 = test system: UACC-257
COLO 205 = test system: COLO 205
OVCAR-8 = test system: OVCAR-8
RPMI-8226 = test system: RPMI-8226
EKVX = test system: EKVX
SK-MEL-28 = test system: SK-MEL-28
KM12 = test system: KM12
HT-29 = test system: HT-29
A549 = test system: A549
SF-539 = test system: SF-539
HCC 2998 = test system: HCC 2998
U-251 = test system: U-251
T47D = test system: T47D
NCI-H522 = test system: NCI-H522
IGROV-1 = test system: IGROV-1
SK-MEL-5 = test system: SK-MEL-5
UACC-62 = test system: UACC-62
SK-OV-3 = test system: SK-OV-3

Row | SMILES | GI50 (NCI-H226) | GI50 (OVCAR-5) | GI50 (UACC-257) | GI50 (COLO 205) | GI50 (OVCAR-8) | GI50 (RPMI-8226) | GI50 (EKVX) | GI50 (SK-MEL-28) | GI50 (KM12) | GI50 (HT-29) | GI50 (A549) | GI50 (SF-539) | GI50 (HCC 2998) | GI50 (U-251) | GI50 (T47D) | GI50 (NCI-H522) | GI50 (IGROV-1) | GI50 (SK-MEL-5) | GI50 (UACC-62) | GI50 (SK-OV-3)
1 | Cc1cc(C)c(N[S+]([O-])c2ccc(Cl)cc2)c(C)c1 (stereo not drawn) | > 100 µM (inactive) | > 100 µM (inactive) | > 100 µM (inactive) | > 100 µM (inactive) | > 100 µM (inactive) | > 100 µM (inactive) | > 100 µM (inactive) | > 100 µM (inactive) | > 100 µM (inactive) | > 100 µM (inactive) | > 100 µM (inactive) | > 100 µM (inactive) | 83.4 µM (inactive) | > 100 µM (inactive) | > 100 µM (inactive) | – | – | – | – | –
2 | CCOC(=O)c1cc(-c2ccn(C(C)=O)c2)c(-c2cc(C)co2)[nH]1 | > 100 µM (inactive) | > 100 µM (inactive) | > 100 µM (inactive) | > 100 µM (inactive) | > 100 µM (inactive) | > 100 µM (inactive) | > 100 µM (inactive) | > 100 µM (inactive) | > 100 µM (inactive) | – | > 100 µM (inactive) | – | > 100 µM (inactive) | > 100 µM (inactive) | > 100 µM (inactive) | > 100 µM (inactive) | > 100 µM (inactive) | > 100 µM (inactive) | > 100 µM (inactive) | –
3 | CSC1=NC(C(N)=O)C(N)N1C (stereo not drawn) | > 100 µM (inactive) | > 100 µM (inactive) | > 100 µM (inactive) | > 100 µM (inactive) | > 100 µM (inactive) | > 100 µM (inactive) | > 100 µM (inactive) | > 100 µM (inactive) | > 100 µM (inactive) | > 100 µM (inactive) | > 100 µM (inactive) | > 100 µM (inactive) | – | > 100 µM (inactive) | > 100 µM (inactive) | > 100 µM (inactive) | > 100 µM (inactive) | > 100 µM (inactive) | > 100 µM (inactive) | > 100 µM (inactive)
4 | O=C(COc1ccc(Cl)c(Cl)c1)Nc1ccc[n+](Cc2ccc(S(=O)(=O)F)c(Cl)c2)c1 | > 100 µM (inactive) | > 100 µM (inactive) | > 100 µM (inactive) | > 100 µM (inactive) | > 100 µM (inactive) | 1.02 µM (active) | > 100 µM (inactive) | > 100 µM (inactive) | > 100 µM (inactive) | > 100 µM (inactive) | > 100 µM (inactive) | > 100 µM (inactive) | – | > 100 µM (inactive) | > 100 µM (inactive) | > 100 µM (inactive) | > 100 µM (inactive) | > 100 µM (inactive) | > 100 µM (inactive) | > 100 µM (inactive)
5 | c1cc(-c2cscc2-c2ccsc2)cs1 | – | 53.2 µM (inactive) | 58.2 µM (inactive) | > 100 µM (inactive) | – | 34.9 µM (inactive) | 41.3 µM (inactive) | 98.4 µM (inactive) | 14.8 µM (inactive) | > 100 µM (inactive) | 43.6 µM (inactive) | 17.8 µM (inactive) | 27.4 µM (inactive) | > 100 µM (inactive) | 69.7 µM (inactive) | – | 34.5 µM (inactive) | 31 µM (inactive) | 47.3 µM (inactive) | > 100 µM (inactive)
6 | Cc1c(CN2CCN(C)CC2)c(CN2CCN(C)CC2)c(C)n1-c1ccc(Cl)cc1 | 33.6 µM (inactive) | 53.7 µM (inactive) | 14.2 µM (inactive) | 20.4 µM (inactive) | 19.9 µM (inactive) | 47.2 µM (inactive) | 72.4 µM (inactive) | 19.5 µM (inactive) | 34 µM (inactive) | 18.2 µM (inactive) | 30.4 µM (inactive) | – | 39.7 µM (inactive) | 40.2 µM (inactive) | 19.2 µM (inactive) | 20.5 µM (inactive) | 31.2 µM (inactive) | 16.8 µM (inactive) | 16.7 µM (inactive) | > 100 µM (inactive)
7 | CC(=O)O[C@H]1CCC2[C@@H]3CCC4NC(=O)C(C#N)C[C@]4(C)C3CC[C@@]21C (stereo partly drawn) | > 10 µM (inactive) | > 10 µM (inactive) | > 10 µM (inactive) | > 10 µM (inactive) | > 10 µM (inactive) | > 10 µM (inactive) | 8.17 µM (inactive) | > 10 µM (inactive) | > 10 µM (inactive) | > 10 µM (inactive) | > 10 µM (inactive) | > 10 µM (inactive) | > 10 µM (inactive) | > 10 µM (inactive) | > 10 µM (inactive) | – | > 10 µM (inactive) | > 10 µM (inactive) | > 10 µM (inactive) | > 10 µM (inactive)
8 | CC(C)SC(C)(NC(=O)C1C(C)(C)CCC1(C)C)C(=O)O (stereo not drawn) | > 100 µM (inactive) | > 100 µM (inactive) | – | > 100 µM (inactive) | – | > 100 µM (inactive) | > 100 µM (inactive) | > 100 µM (inactive) | – | – | > 100 µM (inactive) | > 100 µM (inactive) | > 100 µM (inactive) | > 100 µM (inactive) | > 100 µM (inactive) | – | – | > 100 µM (inactive) | – | > 100 µM (inactive)
